Results taken from PMC12693182, “Synthesis and QSAR Studies of Claramine Derivatives, a New Class of Broad-Spectrum Antimicrobial Agents” (Molecules, 2025).
Converted amounts (≈) assume the structure as drawn.

Columns and labels:
[1] = system: E. coli ATCC 25922; test: MIC, broth microdilution; type: cell-based, Escherichia coli; details: ATCC strain; for MIC: Escherichia coli, ATCC25922, 24 h
Experimental: (§1) Antimicrobial activity of the compounds was studied by determination of minimal inhibitory concentrations (MIC) according to the NCCLS guidelines M7-A2 using the microbroth dilution methods. The bacteria strains were grown on trypticase soy agar (Becton Dickinson) at 37 °C for 24 h. Inocula were prepared in TCE (tryptone 0.1%, […], wt/vol) by ajusting the turbidity at 623 nm to obtain 1–3 10^5 CFU/mL.
(§2) Antimicrobial activities of the compounds were determined by using a broth microdilution method performed in sterile 96-well microplates. All compounds were solubilized in water at a concentration of 10 mM and were transferred to each microplate well in order to obtain a two-fold serial dilution in 100 µL of broth and 100 µL of inoculum containing 2–6 10^5 CFU of each bacterium were added to each well. Some wells were reserved for positive controls and inoculum viability.

[2] = system: S. intermedius 1051997; test: MIC, broth microdilution; type: cell-based, Staphylococcus intermedius; details: for MIC: Staphylococcus intermedius, 1051997, 24 h
Experimental: as §1, §2

[3] = system: E. faecalis ATCC29212; test: MIC, broth microdilution; type: cell-based, Enterococccus faecalis; details: ATCC strain; for MIC: Enterococcus faecalis, ATCC29212, 24 h, read-out: MIC E. faecalis 29212
Experimental: as §1, §2

[4] = system: Chinese hamster Ovary cells (CHO-K1); test: Cytotoxicity assay (WST-1 / Neutral Red); type: cell-based; details: 24-h incubation; for IC50: Cricetulus griseus, 24 h
Experimental: The cytotoxic activities of compounds were assessed on Chinese hamster Ovary cells (CHO-K1) provided from ATCC-LGC Standards Sarl (Molsheim, France). Cells were maintained in Mc Coy’s 5A (CHO) medium supplemented with 10% bovine calf serum, 2 mM glutamine, and 100 U mL^−1/10 µg mL^−1 penicillin/streptomycin mixtures. For the cytotoxicity experiments, they were seeded in 96-well plates and incubated at 37 °C in humidified atmosphere containing 5% CO2 overnight, then concentrations of compounds were incorporated in triplicate cultures. After a 24-h incubation period at 37 °C, cells were submitted to three successive washes in phosphate buffer saline (PBS) and cell viability was evaluated by two different vital dyes: • i. A first set of cell cultures was incubated in PBS containing 10% WST-1 for 30 min at 37 °C, 5% CO2. Cell viability was evaluated by the assessment of WST-1 absorbance at 450 nm in a microplate spectrophotometer. • ii. A second set of cell cultures was placed into Neutral Red medium (50 μg mL^−1 Neutral Red in complete medium) and incubated for 3 h at 37 °C, 5% CO2. Then the Neutral Red medium was removed and the distaining solution (50% ethanol, 1% acetic acid, 49% distilled water; 50 µL per well) was added into the wells. The plates were shaken for 15–20 min at room temperature in the dark. Cell viability was evaluated by the assessment of absorbance at 540 nm in a microplate spectrophotometer.
Results were expressed as percentages of cell viability about the control (culture medium-only), which corresponded to 100% cell viability. Dose-response curves were calculated by non-linear regression analysis with TableCurve 2D software (V 5.0.1) (Systat Software Inc., San Jose, CA, USA). The Inhibitory Concentration 50% (IC50) was defined as the concentration of compounds that induced a 50% decrease of viable cells.

[5] = system: S. aureus ATCC 25923; test: MIC, broth microdilution; type: cell-based, Staphylococcus aureus; details: ATCC strain; for MIC: Staphylococcus aureus, ATCC25923, 24 h
Experimental: as §1, §2

[6] = system: S. aureus 340; test: MIC, broth microdilution; type: cell-based, Staphylococcus aureus; details: for MIC: Staphylococcus aureus, 340, 24 h; for MIC S. aureus 340: 24 h
Experimental: as §1, §2

[7] = system: Gram-positive and Gram-negative human and veterinary reference strains; test: MIC against the panel of Gram-positive and Gram-negative reference strains; type: cell-based; details: Homo sapiens, 24 h, over several or all of the tested pathogens
Source text: Typically, cytotoxicity was expressed as the half maximal inhibitory concentration (IC50), defined as the concentration of a compound that decreases cell viability by 50% relative to untreated cells. This parameter provides a quantitative measure of a compound’s toxic potential toward mammalian cells. To facilitate data interpretation, we defined the Therapeutic Ratio (TR) as the ratio of IC50 (µg/mL) to MIC (µg/mL). This dimensionless parameter provides a straightforward measure of antibacterial selectivity, allowing direct comparison of cytotoxicity and antibacterial potency. A high TR value indicates compounds with strong antibacterial activity at concentrations far below their cytotoxic threshold, whereas a TR close to unity reflects poor selectivity and limited therapeutic potential. […] Within the Claramine A series, variations in IC50 strongly impacted TR values (Figure 5).
as §1, §2

[8] = system: P. aeruginosa 1051575; test: MIC, broth microdilution; type: cell-based, Pseudomonas aeruginosa; details: for MIC: Pseudomonas aeruginosa, 1051575, 24 h; for MIC / MIC P. aeruginosa 1051575: 24 h
Experimental: as §1, §2

[9] = system: P. aeruginosa ATCC 27853; test: MIC, broth microdilution; type: cell-based, Pseudomonas aeruginosa; details: ATCC strain; for MIC: Pseudomonas aeruginosa, ATCC27853, 24 h
Experimental: as §1, §2

[10] = system: E. coli 1956; test: MIC, broth microdilution; type: cell-based, Escherichia coli; details: for MIC: Escherichia coli, 1956, 24 h
Experimental: as §1, §2

COC(=O)CCC(C)C1CCC2C3C(O)CC4CC(NCCCN5CCN(CCCN)CC5)CCC4(C)C3CC(O)C12C (stereo not shown) [Claramine B07]
MIC [1]: 15 µg/mL (≈ 24.8 µM)
MIC ([2]; 24 h): 4 µg/mL (≈ 6.61 µM)
MIC [3]: 8 µg/mL (≈ 13.2 µM)
IC50 CHO [4]: 80 µg/mL (≈ 132 µM)
IC50 [4]: > 60 µg/mL
MIC [5]: 4 µg/mL (≈ 6.61 µM)
MIC [6]: 8 µg/mL (≈ 13.2 µM)
MIC [7]: 0.7 to 30 µg/mL (≈ 1.16 to 49.6 µM)
MIC [8]: 15 µg/mL (≈ 24.8 µM)
MIC [9]: 30 µg/mL (≈ 49.6 µM)

COC(=O)CCC(C)C1CCC2C3C(O)CC4CC(NCCCNCCCNCCCN)CCC4(C)C3CCC12C (stereo not shown) [Claramine D02]
MIC E. coli 25922 ([1]; 24 h): 4 µg/mL (≈ 6.93 µM)
MIC E. coli 1956 ([10]; 24 h): 60 µg/mL (≈ 104 µM)
MIC S. intermedius 1051997 ([2]; 24 h): 1 µg/mL (≈ 1.73 µM)
MIC E. faecalis 29212 ([3]; 24 h): 30 µg/mL (≈ 52 µM)
IC50 CHO [4]: 20 µg/mL (≈ 34.7 µM)
MIC S. aureus 25923 ([5]; 24 h): 7 µg/mL (≈ 12.1 µM)
MIC S. aureus 340 [6]: 4 µg/mL (≈ 6.93 µM)
MIC P. aeruginosa 1051575 [8]: 7 µg/mL (≈ 12.1 µM)
MIC P. aeruginosa 27853 ([9]; 24 h): 30 µg/mL (≈ 52 µM)

CC(C)OC(=O)CCC(C)C1CCC2C3C(O)CC4CC(NCCN(CCN)CCN)CCC4(C)C3CCC12C (stereo not shown) [Claramine D10]
MIC [1]: 110 µg/mL (≈ 195 µM)
MIC [10]: 56 µg/mL (≈ 99.5 µM)
MIC ([2]; 24 h): 7 µg/mL (≈ 12.4 µM)
MIC [3]: 56 µg/mL (≈ 99.5 µM)
IC50 CHO [4]: 80 µg/mL (≈ 142 µM)
MIC [5]: 28 µg/mL (≈ 49.7 µM)
MIC S. aureus 340 [6]: 28 µg/mL (≈ 49.7 µM)
MIC P. aeruginosa 1051575 [8]: 14 µg/mL (≈ 24.9 µM)
MIC [9]: 110 µg/mL (≈ 195 µM)

CC(C)OC(=O)CCC(C)C1CCC2C3CCC4CC(NCCCNCCCCNCCCN)CCC4(C)C3CCC12C (stereo not shown) [Claramine E01]
MIC [1]: 15 µg/mL (≈ 24.9 µM)
MIC [10]: 8 µg/mL (≈ 13.3 µM)
MIC ([2]; 24 h): 2 µg/mL (≈ 3.32 µM)
MIC [3]: 8 µg/mL (≈ 13.3 µM)
IC50 [4]: 24 µg/mL (≈ 39.8 µM)
MIC [5]: 4 µg/mL (≈ 6.63 µM)
MIC [6]: 4 µg/mL (≈ 6.63 µM)
MIC [8]: 8 µg/mL (≈ 13.3 µM)
MIC [9]: 15 µg/mL (≈ 24.9 µM)

CC(C)OC(=O)CCC(C)C1CCC2C3CCC4CC(NCCCNCCCNCCCN)CCC4(C)C3CCC12C (stereo not shown) [Claramine E02]
MIC [1]: 14 µg/mL (≈ 23.8 µM)
MIC [10]: 7 µg/mL (≈ 11.9 µM)
MIC ([2]; 24 h): 1 µg/mL (≈ 1.7 µM)
MIC [3]: 14 µg/mL (≈ 23.8 µM)
IC50 [4]: 15 µg/mL (≈ 25.5 µM)
MIC [5]: 7 µg/mL (≈ 11.9 µM)
MIC [6]: 7 µg/mL (≈ 11.9 µM)
MIC [8]: 2 µg/mL (≈ 3.4 µM)
MIC [9]: 28 µg/mL (≈ 47.5 µM)

CC(C)OC(=O)CCC(C)C1CCC2C3CCC4CC(NCCCNCCCCN)CCC4(C)C3CCC12C (stereo not shown) [Claramine E03]
MIC [1]: 100 µg/mL (≈ 183 µM)
MIC [10]: 14 µg/mL (≈ 25.6 µM)
MIC ([2]; 24 h): 2 µg/mL (≈ 3.66 µM)
MIC [3]: 7 µg/mL (≈ 12.8 µM)
IC50 [4]: 56 µg/mL (≈ 103 µM)
MIC [5]: 3 µg/mL (≈ 5.5 µM)
MIC [6]: 7 µg/mL (≈ 12.8 µM)
MIC [8]: 7 µg/mL (≈ 12.8 µM)
MIC [9]: 27 µg/mL (≈ 49.5 µM)

CC(C)OC(=O)CCC(C)C1CCC2C3CCC4CC(NCCCN5CCN(CCCN)CC5)CCC4(C)C3CCC12C (stereo not shown) [Claramine E05]
MIC [1]: 15 µg/mL (≈ 25 µM)
MIC [10]: 15 µg/mL (≈ 25 µM)
MIC ([2]; 24 h): 15 µg/mL (≈ 25 µM)
MIC [3]: 30 µg/mL (≈ 49.9 µM)
IC50 CHO [4]: 50 µg/mL (≈ 83.2 µM)
IC50 [4]: 46 µg/mL (≈ 76.5 µM)
MIC [5]: 15 µg/mL (≈ 25 µM)
MIC [6]: 8 µg/mL (≈ 13.3 µM)
MIC [8]: 8 µg/mL (≈ 13.3 µM)
MIC [9]: 60 µg/mL (≈ 99.8 µM)

COC(=O)CCC(C)C1CCC2C3CCC4CC(NCCCNCCCN)CCC4(C)C3CCC12C (stereo not shown) [Claramine E09]
MIC [1]: 32 µg/mL (≈ 63.5 µM)
MIC [10]: 3 µg/mL (≈ 5.95 µM)
Therapeutic Ratio (TR) ([2]; IC50 (CHO)/MIC, S. intermedius): 65–114
MIC ([2]; 24 h): 0.7 µg/mL (≈ 1.39 µM)
MIC [3]: 32 µg/mL (≈ 63.5 µM)
IC50 CHO [4]: 80 µg/mL (≈ 159 µM)
IC50 [4]: > 60 µg/mL
MIC [5]: 16 µg/mL (≈ 31.8 µM)
MIC S. aureus 340 [6]: 0.7 µg/mL (≈ 1.39 µM)
MIC [6]: 1 µg/mL (≈ 1.98 µM)
MIC [7]: 0.7 to 30 µg/mL (≈ 1.39 to 59.5 µM)
Therapeutic Ratio (TR) ([8]; IC50 (CHO)/MIC, P. aeruginosa): > 10
MIC [9]: 32 µg/mL (≈ 63.5 µM)

CC(C)OC(=O)CCC(C)C1CCC2C3CCC4CC(NCCN(CCN)CCN)CCC4(C)C3CCC12C (stereo not shown) [Claramine E22]
MIC [1]: 110 µg/mL (≈ 201 µM)
MIC [10]: 55 µg/mL (≈ 101 µM)
MIC ([2]; 24 h): 7 µg/mL (≈ 12.8 µM)
MIC [3]: 55 µg/mL (≈ 101 µM)
IC50 CHO [4]: 105 µg/mL (≈ 192 µM)
IC50 [4]: 107 µg/mL (≈ 196 µM)
MIC [5]: 14 µg/mL (≈ 25.6 µM)
MIC [6]: 14 µg/mL (≈ 25.6 µM)
MIC [8]: 55 µg/mL (≈ 101 µM)
MIC [9]: 110 µg/mL (≈ 201 µM)
